{"source": "patent US6130250A", "about": "“Veterinary use of a pleuromutilin derivative” (priority 1996, dated 2000)", "key": {"M. hyopneumoniae [1]": {"system": "M. hyopneumoniae", "assay": "MIC against M. hyopneumoniae strains isolated from challenge material", "type": "cell-based, Mycoplasma hyopneumoniae", "conditions": "Mesomycoplasma hyopneumoniae"}, "M. hyopneumoniae [2]": {"system": "M. hyopneumoniae", "assay": "Prevention of experimentally-induced enzootic pneumonia in vivo (Trials 1-3)", "design": "species or system pigs", "description": "An experimental model of enzootic pneumonia, using passaged lung material originally derived by infection of gnotobiotic pigs with M. hyopneumoniae,was employed to assess the potential of valnemulin for prevention of the disease. Three trials were performed: Trials 1 and 2 were dose titration studies of the novel compound using a standard challenge strain of M. hyopneumoniae and in Trial 3, the efficacy of the compound at 200 ppm in feed against a second challenge strain was assessed. Large white Landrace male pigs, 6-7 weeks of age, from stock free of infection with M. hyopneumoniae are used. The challenge materials are pneumonic lungs containing M. hyopneumoniae given as a homogenate intranasally on three successive days. […] The challenge material was originally derived by infection of gnotobiotic pigs with M. hyopneumoniae and subsequent passage in SPF (Specific Pathogen-free) pigs and had been stored below -70° C.\nTrial 1: Medication with valnemulin hydrochloride by stomach tube (gavage) once a day at 0 (control), 2.5, 5, 7.5 or 10 mg/kg body weight per day. Six pigs per group.\nTrial 2: Medication with valnemulin hydrochloride in feed at 0, 100, 200, 300 or 400 ppm (equivalent to 0, 5, 10, 15 and 20 mg/kg/day). Six pigs per group.\nTrial 3: Medication with valnemulin hydrochloride in feed at 0 or 200 ppm (equivalent to 0 and 10 mg/kg/day). Eight pigs per group. Medication was given from the first day of challenge infection until post-mortem examination performed approximately 3 weeks after challenge infection. Disease was assessed by quantifying lung lesions [Cambridge lung lesion scoring system (Goodwin, R. F. W. and Whittlestone, P., J. Hyg. 69 [1971] 391-397), in which the score is an approximation of percent of lung affected with pneumonia], by estimation of lung-bodyweight ratio and by isolation of M. hyopneumoniae from lungs."}, "[3]": {"assay": "Acute toxicity in the rat", "type": "in vivo", "description": "The acute toxicity in the rat of the compound of formula I in hydrochloride salt form was determined with single doses of 1000 mg/kg and 2000 mg/kg orally administered to 5 male and 5 female rats per dose group. Deaths occurred within 1-8 days. The LD50 -value obtained is >1000 mg/kg p.o."}, "M. hyopneumoniae [4]": {"system": "M. hyopneumoniae", "assay": "Development of resistance (habituation study), MIC before and after passages", "type": "cell-based, Mycoplasma hyopneumoniae", "conditions": "for Resistance increase: up to P10/P11", "description": "Mycoplasma hyopneumoniae reference strain NCTC 10110 (obtained from the National Collection of Type Cultures, London, UK) and a recent field isolate (MEVT G23), are grown aerobically at 36° C. in Mycoplasma glucose broth containing phenol red until an acid colour change occurs. After addition of sterile glycerol (5% v/v) the cultures are dispensed in 1 ml aliquots and frozen at -70° C. These cultures are used to initiate further broth cultures which are titrated to obtain the number of colour changing units (ccu) in microtitre plates after incubation (36° C.). Replication allows challenge of antibiotic dilutions with predetermined numbers of ccu in minimal inhibitory concentration (MIC) tests and in the primary passage in habituation studies.\nA commercially available medium (Mycopiasma Experience Ltd.) containing glucose and phenol red (MEGB) is used at pH 7.6.\nStock test compound solutions are prepared at 1000 μg/ml in deionized water. After vortexing, the solutions are sterilized by filtration through 0.2μ pore size membrane filters (Sartorius Minisart, N). For use in the MIC tests the stock solutions are diluted in mycoplasma broth to double the final concentrations required. In habituation studies the stock solutions are dispensed in 1 ml aliquots and frozen at -20° C. These are thawed and used at 5 day-7 day intervals to prepare ranges of concentrations of drug (doubling series) in MEGB, in 1.9 ml aliquots, covering the MICs against both strains of M. hyopneumoniae. Oxytetracycline hydrochloride is prepared fresh on each occasion. The dilution ranges are gradually changed from passage to passage to allow for the development of resistance in the mycoplasmas.\nMIC tests are carried out by the method of Tanner & Wu, Avian Diseases 36 (1992) 714-717 before carrying out the habituation study (below) and after the 10th passages 0.1 ml aliquots of the compound dilution are mixed with 0.1 ml aliquots of the challenge inocula, containing between 10^3 and 10^5 colour changing units (ccu) per ml, in microtitre wells. Each microtitre plate contains uninoculated medium, medium at pH 6.8 (end-point-control) and drug-free inoculated challenge controls. All plates are sealed and incubated aerobically at 36° C. MICs are recorded when the colour change in the challenge control wells match the pH 6.8 control (orange-yellow). The MIC is the lowest concentration to show no colour change.\nHabituation study: In the primary passage experiment, 1.9 ml volumes of antibiotic solutions at concentrations covering the MIC of the M. hyopneumoniae strain under test, are inoculated with 0.1 ml of broth culture containing between 10^3 ccu/ml to 10^5 ccu/ml. A growth control consisting of drug-free broth inoculated with M. hyopneumoniae and an uninoculated medium control are included in each passage experiment. After 7 days incubation (36° C.) the two highest concentrations of drug-containing broth showing an acid colour change are pooled and used to inoculate a fresh series of drug dilutions in mycoplasma broth (0.1 ml culture into 1.9 ml drug-containing broth). This process is repeated every 5-7 days for up to 10 passages. When the mycoplasma strains become resistant to particular antibiotics, or at the 10th passage, each strain is grown once more in drug-containing broth and the MICs determined."}, "[5]": {"conditions": "Trial 2, feed, 100 ppm (5 mg/kg)"}, "[6]": {"conditions": "Trial 2, feed, 200 ppm (10 mg/kg)"}, "[7]": {"conditions": "Trial 2, feed, 300 ppm (15 mg/kg)"}, "[8]": {"conditions": "Trial 2, feed, 400 ppm (20 mg/kg)"}, "[9]": {"conditions": "Trial 3, feed, 200 ppm (10 mg/kg)"}}, "note": "Entries after “also recorded” stand apart in the source; their conditions may differ. Structures can show the parent of a compound that is named as a salt."}
{"smiles": "C=C[C@]1(C)C[C@@H](OC(=O)CSC(C)(C)CNC(=O)[C@H](N)C(C)C)[C@]2(C)[C@H](C)CC[C@]3(CCC(=O)[C@H]32)[C@@H](C)[C@@H]1O", "note": "[valnemulin hydrochloride, 14-O-[1-[(R)-2-amino-3-methylbutyrylamino]-2-methylpropan-2-ylthioacetyl]mutilin]", "values": [{"measurement": "MIC", "setting": "M. hyopneumoniae [1]; strain from material used in Trial 3", "result": 7.8, "unit": "ng/mL"}, {"measurement": "MIC", "setting": "M. hyopneumoniae [1]; strain in material used in Trials 1 & 2", "result": 16, "unit": "ng/mL"}, {"measurement": "pigs from which M. hyopneumoniae was reisolated", "setting": "M. hyopneumoniae [2]; Trial 1, 2.5 mg/kg", "result": 4, "unit": "pigs"}, {"measurement": "reduction of lesions", "setting": "M. hyopneumoniae [2]; Trial 1, 7.5 mg/kg", "result": 71, "unit": "%"}, {"measurement": "pigs from which M. hyopneumoniae was reisolated", "setting": "M. hyopneumoniae [2]; Trial 1, 10 mg/kg", "result": 1, "unit": "pigs"}, {"measurement": "reduction of lesions", "setting": "M. hyopneumoniae [2]; Trial 1, 10 mg/kg", "result": 87, "unit": "%"}, {"measurement": "effect on lesions in words", "setting": "M. hyopneumoniae [2]; Trial 1, 2.5 and 5 mg/kg/day", "result": "somewhat less effective at reducing lesions"}, {"measurement": "Lung lesion score", "setting": "M. hyopneumoniae [2]; Trial 1, gavage, 2.5 mg/kg/day", "result": 7.7}, {"measurement": "Lung-bodyweight ratio", "setting": "M. hyopneumoniae [2]; Trial 1, gavage, 2.5 mg/kg/day", "result": 1.21, "unit": "%"}, {"measurement": "Lung lesion score", "setting": "M. hyopneumoniae [2]; Trial 1, gavage, 5 mg/kg/day", "result": 11.1}, {"measurement": "Lung-bodyweight ratio", "setting": "M. hyopneumoniae [2]; Trial 1, gavage, 5 mg/kg/day", "result": 1.31, "unit": "%"}, {"measurement": "Lung lesion score", "setting": "M. hyopneumoniae [2]; Trial 1, gavage, 7.5 mg/kg/day", "result": 3.8}, {"measurement": "Lung-bodyweight ratio", "setting": "M. hyopneumoniae [2]; Trial 1, gavage, 7.5 mg/kg/day", "result": 1.21, "unit": "%"}, {"measurement": "Lung lesion score", "setting": "M. hyopneumoniae [2]; Trial 1, gavage, 10 mg/kg/day", "result": 1.7}, {"measurement": "Lung-bodyweight ratio", "setting": "M. hyopneumoniae [2]; Trial 1, gavage, 10 mg/kg/day", "result": 1.08, "unit": "%"}, {"measurement": "pigs from which M. hyopneumoniae was reisolated", "setting": "M. hyopneumoniae [2]; Trial 2, 100 ppm", "result": 4, "unit": "pigs"}, {"measurement": "reduction in lesions", "setting": "M. hyopneumoniae [2]; Trial 2, 100 ppm", "result": "No reduction in lesions"}, {"measurement": "pigs from which M. hyopneumoniae was reisolated", "setting": "M. hyopneumoniae [2]; Trial 2, 200 ppm", "result": 3, "unit": "pigs"}, {"measurement": "reduction of lesions", "setting": "M. hyopneumoniae [2]; Trial 2, 200 ppm", "result": 46, "unit": "%"}, {"measurement": "reduction of lesions", "setting": "M. hyopneumoniae [2]; Trial 2, 300 ppm", "result": 43, "unit": "%"}, {"measurement": "reisolation of M. hyopneumoniae", "setting": "M. hyopneumoniae [2]; Trial 2, 300 ppm", "result": "not reisolated"}, {"measurement": "reduction of lesions", "setting": "M. hyopneumoniae [2]; Trial 2, 400 ppm", "result": 71, "unit": "%"}, {"measurement": "reisolation of M. hyopneumoniae", "setting": "M. hyopneumoniae [2]; Trial 2, 400 ppm", "result": "not reisolated"}, {"measurement": "Lung lesion score", "setting": "M. hyopneumoniae [2]; [5]", "result": 25}, {"measurement": "Lung-bodyweight ratio", "setting": "M. hyopneumoniae [2]; [5]", "result": 1.53, "unit": "%"}, {"measurement": "Lung lesion score", "setting": "M. hyopneumoniae [2]; [6]", "result": 12}, {"measurement": "Lung-bodyweight ratio", "setting": "M. hyopneumoniae [2]; [6]", "result": 1.29, "unit": "%"}, {"measurement": "Lung lesion score", "setting": "M. hyopneumoniae [2]; [7]", "result": 12.7}, {"measurement": "Lung-bodyweight ratio", "setting": "M. hyopneumoniae [2]; [7]", "result": 1.27, "unit": "%"}, {"measurement": "Lung lesion score", "setting": "M. hyopneumoniae [2]; [8]", "result": 6.3}, {"measurement": "Lung-bodyweight ratio", "setting": "M. hyopneumoniae [2]; [8]", "result": 1.24, "unit": "%"}, {"measurement": "reduction of lung weights", "setting": "M. hyopneumoniae [2]; Trial 2, levels down to 200 ppm", "result": "significant reductions at levels down to 200 ppm"}, {"measurement": "levels of M. hyopneumoniae at post-mortem, medicated vs unmedicated", "setting": "M. hyopneumoniae [2]; Trial 3, 200 ppm", "result": "no difference in the levels of M. hyopneumoniae"}, {"measurement": "reduction of lesion scores", "setting": "M. hyopneumoniae [2]; Trial 3, 200 ppm in feed", "result": 79, "unit": "%"}, {"measurement": "Lung lesion score", "setting": "M. hyopneumoniae [2]; [9]", "result": 2.3}, {"measurement": "Lung-bodyweight ratio", "setting": "M. hyopneumoniae [2]; [9]", "result": 1.21, "unit": "%"}, {"measurement": "prevention of experimentally-induced enzootic pneumonia", "setting": "M. hyopneumoniae [2]; separate experiments, two challenge strains", "result": "effective for the prevention of experimentally-induced enzootic pneumonia"}, {"measurement": "tolerability", "setting": "[3]; in vivo", "result": "well tolerated"}, {"measurement": "LD50", "setting": "[3]; in vivo, po, single dose", "result": "> 1000", "unit": "mg/kg"}, {"measurement": "time of deaths", "setting": "[3]; oral 1000 and 2000 mg/kg", "result": "1 to 8", "unit": "days"}, {"measurement": "resistance development in words", "setting": "M. hyopneumoniae [4]; M. hyopneumoniae strains, in vitro passages", "result": "resistance development was minimal; also recorded: does not induce significant resistance to itself"}, {"measurement": "MIC", "setting": "M. hyopneumoniae [4]; Mesomycoplasma hyopneumoniae, NCTC10110, read-out: Post-passage MIC up to P10/P11", "result": 5, "unit": "ng/mL"}, {"measurement": "Resistance increase", "setting": "M. hyopneumoniae [4]; NCTC 10110", "result": 2, "unit": "fold"}, {"measurement": "activity greater than those of tylosin and oxytetracycline", "setting": "M. hyopneumoniae [4]; before exposure, both strains", "result": "50-100 told"}, {"measurement": "Resistance increase", "setting": "M. hyopneumoniae [4]; field isolate", "result": 2.5, "unit": "fold"}]}
